melting point | Structure (SMILES)
158 to 160 °C | COc1ccc(CN2CCc3cc(O)ccc3C2)cc1 [B17, 2-(4-methoxybenzyl)-1,2,3,4-tetrahydroisoquinolin-6-ol]
178 to 179 °C | COc1cc(OC)cc(C(=O)N2CCc3cc(O)ccc3C2=O)c1 [compound 137, 2-(3,5-Dimethoxybenzoyl)-6-hydroxy-3,4-dihydro-2H-isoquinoline-1-one]
119 to 122 °C | COc1ccc(CN2CCc3cc(O)ccc3C2)cc1OC [B23, 2-(3,4-Dimethoxybenzyl)-1,2,3,4-tetrahydroisoquinolin-6-ol]
137 to 138 °C | COc1cc2c(cc1O)CCN(Cc1ccccn1)C2 [compound 48, 6-Hydroxy-7-methoxy-2-(pyridin-2-ylmethyl)-1,2,3,4-tetrahydroisoquinoline]
170 to 171 °C | COc1cc2c(cc1O)CCCC(=O)N2Cc1cc(OC)c(OC)c(OC)c1 [compound 319, 7-Hydroxy-8-methoxy-1-(3,4,5-trimethoxybenzyl)-4,5-dihydro-1H-benzo[b]azepin-2(3H)-one]
134 to 135 °C | COc1cc2c(cc1OCc1ccccc1)CCCN(Cc1cc(OC)c(OC)c(OC)c1)C2=O [compound 314, 7-Benzyloxy-8-methoxy-2-(3,4,5-trimethoxybenzyl)-2,3,4,5-tetrahydro-1H-benzo[c]azepin-1-one]
129 to 130 °C | COc1cc2c(cc1OCc1ccccc1)CCC(=O)N2Cc1cc(OC)c(OC)c(OC)c1 [compound 289, 6-(Benzyloxy)-7-methoxy-1-(3,4,5-trimethoxybenzyl)-3,4-dihydro-1H-quinolin-2-one]
109 to 110 °C | COc1cc2c(cc1OCc1ccccc1)CCN(Cc1cccc([N+](=O)[O-])c1)C2 [compound 10, 6-Benzyloxy-7-methoxy-2-(3-nitrobenzyl)-1,2,3,4-tetrahydroisoquinoline]
101 to 102 °C | COc1ccccc1CN1Cc2cc(OC)c(OCc3ccccc3)cc2C(OC)C1 (centres unmarked) [F19, 6-Benzyloxy-4,7-dimethoxy-2-(2-methoxybenzyl)-1,2,3,4-tetrahydroisoquinoline]
115 to 116 °C | COc1cccc(CN2Cc3cc(OC)c(OCc4ccccc4)cc3C(O)C2)c1 (centres unmarked) [F17, 6-Benzyloxy-7-methoxy-2-(3-methoxybenzyl)-1,2,3,4-tetrahydroisoquinolin-4-ol]
111 to 115 °C | COc1cccc(CN2CCc3cc(O)ccc3C2)c1OC [B21, 2-(2,3-Dimethoxybenzyl)-1,2,3,4-tetrahydroisoquinolin-6-ol]
150 to 151 °C | CCOc1cccc(C(=O)N2CCc3cc(O)ccc3C2)c1 [B4, 2-(3-Ethoxybenzoyl)-1,2,3,4-tetrahydroisoquinolin-6-ol]
99 to 101 °C | COc1cc2c(cc1O)CCN(Cc1cccc(NS(C)(=O)=O)c1)C2 [compound 52, 6-Hydroxy-7-methoxy-2-(3-methanesulfonylaminobenzyl)-1,2,3,4-tetrahydroisoquinoline]
143 to 147 °C | COc1cc2c(cc1O)CC(C)(C)N(Cc1cc(OC)c(OC)c(OC)c1)C2 [compound 229, 7-Methoxy-3,3-dimethyl-2-(3,4,5-trimethoxy-benzyl)-1,2,3,4-tetrahydro-isoquinolin-6-ol]
126 to 127 °C | COc1ccc(C(=O)CN2CCc3cc(OCc4ccccc4)c(OC)cc3C2)cc1OC [compound 15, 6-Benzyloxy-2-(2-(3,4-dimethoxyphenyl)-2-oxoethyl)-7-methoxy-1,2,3,4-tetrahydroisoquinoline]
63 to 64 °C | COc1cc2c(cc1OCc1ccccc1)CCN(C(=O)c1cc(OC)c(OC)c(OC)c1)C2 [compound 111, 6-Benzyloxy-7-methoxy-2-(3,4,5-trimethoxybenzoyl)-1,2,3,4-tetrahydroisoquinoline]
105 to 107 °C | COc1ccc(CN2CCCc3cc(O)c(OC)cc3C2)cc1 [compound 308, 7-Hydroxy-8-methoxy-2-(4-methoxybenzyl)-2,3,4,5-tetrahydro-1H-benzo[c]azepine]

Reference: patent US8394825B2, “Compound” (Sterix Limited, priority 2007, dated 2013)
